Test results from the supplement of paper PMC11208160.

assay: recombinant barcode read abundance after kanamycin selection (control-corrected) (log10(CPM+1)); higher = more efficient recombination; sequences stand for … in AGTGCAGAGAAAATCGGCCAGTTTTCTCTGCCTGCAGTCCGCATGCCGT…AGATTTATGCAGCGGACTGCCTTTCTCCCAAAGTGATAAACCGGACAGTATCATGGACCGGTTTTCCCGGTAATCCGTATTTGCAAGGTTGGTTTCACT; site = the 11-nt target
Procedure, shortened: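 A vector carrying a T7-inducible recombinase and the last 73 bp of the bridge RNA received, by Gibson cloning, oligos encoding a promoter, target, barcode and the first 104 bridge RNA bases under J23119. The pooled constructs entered E. coli together with a donor plasmid by electroporation. Selection used chloramphenicol/ampicillin/kanamycin with 0.1 mM IPTG, with chloramphenicol/ampicillin LB agar as the control, each in two replicates. Recombination efficiency is the averaged, control-corrected counts-per-million of barcodes at recombinant junctions, reported as log10(CPM+1).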
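Further: IS621 recombinase and bridge RNA in Escherichia coli cells.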

Compared with “GTGAAGACTTGGGTTCTAACCTGTTGCTT (site GTGAAGACTAA)”, “GTGACCTCTTGGGTTCTAACCTGTTGCCT (site GCTACCTCTAG)” is lower in “recombinant barcode read abundance (log10)” value: 1.41 for the first, 0.0896 for the second.

Compared with “GTGACCTCTTGGGTTCTAACCTGTTGCCT (site GTGACCTCTAG)”, “GTGAGAACTTGGGTTCTAACCTGTTGCCA (site CGTGACCCTCC)” is lower in “recombinant barcode read abundance (log10)” value: 1.49 for the first, 0.0895 for the second.

First: GTGAGAACTTGGGTTCTAACCTGTTGCCA (site GTGAGAACTTG)
Second: GTGAGCACTTGGGTTCTAACCTGTTGCGG (site GTGAGAGCTCC)
The “recombinant barcode read abundance (log10)” value of the first is higher: 0.588 for the first, 0.0559 for the second.

First: GTGAGCACTTGGGTTCTAACCTGTTGCGG (site GTGAGCACTCC)
Second: GTGAGGACTTGGGTTCTAACCTGTTGCCA (site GTAACGACTTG)
The “recombinant barcode read abundance (log10)” value of the first is higher: 1.84 for the first, 0.252 for the second.

Going from “GTGAGGACTTGGGTTCTAACCTGTTGCCA (site GTGAGGACTTG)” to “GTGAGGTCTTGGGTTCTAACCTGTTGCTT (site GTGAGGTCTAA)”, the “recombinant barcode read abundance (log10)” value rises from 1.53 to 2.01.

Going from “GTGAGGTCTTGGGTTCTAACCTGTTGCTT (site GTGAGGTCTAC)” to “GTGAGGTCTTGGGTTCTAACCTGTTGCTT (site GTGAGGTCTAG)”, the “recombinant barcode read abundance (log10)” value rises from 0.229 to 1.46.

Going from “GTGAGGTCTTGGGTTCTAACCTGTTGCTT (site GTGAGGTCTAT)” to “GTGAGTGCTTGGGTTCTAACCTGTTGCCA (site ATAAGTGCTTG)”, the “recombinant barcode read abundance (log10)” value falls from 1.38 to 0.475.

Compared with “GTGAGTGCTTGGGTTCTAACCTGTTGCCA (site GTGAGTGCTTG)”, “GTGATCCCTTGGGTTCTAACCTGTTGCAG (site GTGAACCCTCT)” is lower in “recombinant barcode read abundance (log10)” value: 0.723 for the first, 0.184 for the second.

Going from “GTGATCCCTTGGGTTCTAACCTGTTGCAG (site GTGATCCCTCT)” to “GTGCAACCTTGGGTTCTAACCTGTTGCCT (site AGTGTCACTCC)”, the “recombinant barcode read abundance (log10)” value falls from 1.79 to 0.056.

First: GTGCAACCTTGGGTTCTAACCTGTTGCCT (site GTGCAACCTAG)
Second: GTGCACACTTGGGTTCTAACCTGTTGCCA (site GTGCAAACTAG)
The “recombinant barcode read abundance (log10)” value of the first is higher: 1.34 for the first, 0.0839 for the second.

Going from “GTGCACACTTGGGTTCTAACCTGTTGCCA (site GTGCACACTTG)” to “GTGCCCGCTTGGGTTCTAACCTGTTGCAG (site AAATGACCTAC)”, the “recombinant barcode read abundance (log10)” value falls from 0.736 to 0.0527.

First: GTGCCCGCTTGGGTTCTAACCTGTTGCAG (site GTGCCCGCTCT)
Second: GTGCCCTCTTGGGTTCTAACCTGTTGCCG (site GTGCCCGCTCC)
The “recombinant barcode read abundance (log10)” value of the first is higher: 0.961 for the first, 0.0127 for the second.

First: GTGCCCTCTTGGGTTCTAACCTGTTGCCG (site GTGCCCTCTCG)
Second: GTGCCTCCTTGGGTTCTAACCTGTTGCTT (site GTGCCTCCTAA)
The “recombinant barcode read abundance (log10)” value of the first is higher: 1.66 for the first, 1.01 for the second.

“GTGCCTCCTTGGGTTCTAACCTGTTGCTT (site GTGTATCCTAA)” and “GTGCGCTCTTGGGTTCTAACCTGTTGCCG (site GTGAGCCCTCG)” are within 0.2 log units of each other in “recombinant barcode read abundance (log10)” value: 0.0505 for the first, 0.076 for the second.

First: GTGCGCTCTTGGGTTCTAACCTGTTGCCG (site GTGCGCTCTCG)
Second: GTGCGGACTTGGGTTCTAACCTGTTGCGT (site GTGAGGACTAC)
The “recombinant barcode read abundance (log10)” value of the first is higher: 1.49 for the first, 0.676 for the second.

Going from “GTGCGGACTTGGGTTCTAACCTGTTGCGT (site GTGCGGACTAC)” to “GTGCTCGCTTGGGTTCTAACCTGTTGCCT (site CTGCCCGCTAG)”, the “recombinant barcode read abundance (log10)” value falls from 2.06 to 0.0812.

Compared with “GTGCTCGCTTGGGTTCTAACCTGTTGCCT (site GTGCTCGCTAG)”, “GTGGAATCTTGGGTTCTAACCTGTTGCCT (site GTGAGATCTAG)” is lower in “recombinant barcode read abundance (log10)” value: 1.87 for the first, 0.307 for the second.

Compared with “GTGGAATCTTGGGTTCTAACCTGTTGCCT (site GTGGAATCTAG)”, “GTGGACTCTTGGGTTCTAACCTGTTGCTA (site GTGGACTCTTA)” is higher in “recombinant barcode read abundance (log10)” value: 1.6 for the first, 2.44 for the second.

First: GTGGACTCTTGGGTTCTAACCTGTTGCTA (site GTGTACTCTAA)
Second: GTGGCCACTTGGGTTCTAACCTGTTGCCT (site GTAGCCACTAG)
The “recombinant barcode read abundance (log10)” value of the first is lower: 0.0609 for the first, 1.86 for the second.

Compared with “GTGGCCACTTGGGTTCTAACCTGTTGCCT (site GTCGCCACTAG)”, “GTGGCCACTTGGGTTCTAACCTGTTGCCT (site GTGGCCACTAG)” is higher in “recombinant barcode read abundance (log10)” value: 0.152 for the first, 1.74 for the second.

“GTGGCCACTTGGGTTCTAACCTGTTGCCT (site GTTGCCACTAG)” and “GTGGGCACTTGGGTTCTAACCTGTTGCCT (site AGAAAGGCTGC)” are within 0.2 log units of each other in “recombinant barcode read abundance (log10)” value: 0.229 for the first, 0.166 for the second.

“GTGGGCACTTGGGTTCTAACCTGTTGCCT (site GTGGGCACTAG)” and “GTGGTATCTTGGGTTCTAACCTGTTGCCT (site GTGGTAACTAG)” are within 0.2 log units of each other in “recombinant barcode read abundance (log10)” value: 0.225 for the first, 0.268 for the second.

“GTGGTATCTTGGGTTCTAACCTGTTGCCT (site GTGGTACCTAG)” and “GTGGTATCTTGGGTTCTAACCTGTTGCCT (site GTGGTAGCTAG)” are within 0.2 log units of each other in “recombinant barcode read abundance (log10)” value: 0.396 for the first, 0.312 for the second.

Going from “GTGGTATCTTGGGTTCTAACCTGTTGCCT (site GTGGTATCTAG)” to “GTGTACCCTTGGGTTCTAACCTGTTGCAC (site AGTATAACTCA)”, the “recombinant barcode read abundance (log10)” value falls from 1.68 to 0.132.

First: GTGTACCCTTGGGTTCTAACCTGTTGCAC (site GTGTACCCTGT)
Second: GTGTACCCTTGGGTTCTAACCTGTTGCGA (site GTGTACCCTAC)
The “recombinant barcode read abundance (log10)” value of the first is higher: 2.35 for the first, 0.129 for the second.

“GTGTACCCTTGGGTTCTAACCTGTTGCGA (site GTGTACCCTCC)” and “GTGTACCCTTGGGTTCTAACCTGTTGCGA (site GTGTACCCTGC)” are within 0.2 log units of each other in “recombinant barcode read abundance (log10)” value: 0.0447 for the first, 0.0937 for the second.

First: GTGTACCCTTGGGTTCTAACCTGTTGCGA (site GTGTACCCTTC)
Second: GTGTATACTTGGGTTCTAACCTGTTGCCT (site GTATATACTAG)
The “recombinant barcode read abundance (log10)” value of the first is higher: 2.35 for the first, 1.12 for the second.

Going from “GTGTATACTTGGGTTCTAACCTGTTGCCT (site GTCTATACTAG)” to “GTGTATACTTGGGTTCTAACCTGTTGCCT (site GTGTATACTAG)”, the “recombinant barcode read abundance (log10)” value rises from 0.173 to 1.24.

“GTGTATACTTGGGTTCTAACCTGTTGCCT (site GTTTATACTAG)” and “GTGTCGCCTTGGGTTCTAACCTGTTGCCT (site GTGTCGCCTAC)” are within 0.2 log units of each other in “recombinant barcode read abundance (log10)” value: 0.075 for the first, 0.224 for the second.

First: GTGTCGCCTTGGGTTCTAACCTGTTGCCT (site GTGTCGCCTAG)
Second: GTGTCGCCTTGGGTTCTAACCTGTTGCGT (site GTGTCGCCTAC)
The “recombinant barcode read abundance (log10)” value of the first is lower: 0.845 for the first, 1.72 for the second.

“GTGTCGCCTTGGGTTCTAACCTGTTGCGT (site GTGTCGCCTAG)” and “GTGTCTCCTTGGGTTCTAACCTGTTGCAT (site GTGTATCCTAT)” are within 0.2 log units of each other in “recombinant barcode read abundance (log10)” value: 0.0604 for the first, 0.162 for the second.

Compared with “GTGTCTCCTTGGGTTCTAACCTGTTGCAT (site GTGTCTCCTAT)”, “GTGTCTCCTTGGGTTCTAACCTGTTGCAT (site GTGTGTCCTAT)” is lower in “recombinant barcode read abundance (log10)” value: 1.54 for the first, 0.457 for the second.

First: GTGTCTCCTTGGGTTCTAACCTGTTGCAT (site GTGTTTCCTAT)
Second: GTGTGTTCTTGGGTTCTAACCTGTTGCCT (site GTGTGTACTAG)
The “recombinant barcode read abundance (log10)” value of the first is lower: 0.243 for the first, 1.15 for the second.
